{"source": "patent US7462362B2", "about": "“Antifungal nail coat and method of use” (NexMed Holdings, Inc., priority 2003, dated 2008)", "key": {"[1]": {"test": "In vitro diffusion of terbinafine across a nail membrane (human nail clippings)", "format": "in vitro ADME", "details": "applied as a 10% solution in ethanol"}, "[2]": {"test": "Release/retention of terbinafine hydrochloride from treated human nail clippings in ethyl alcohol", "format": "in vitro ADME", "details": "FIG. 2", "procedure": "The terbinafine-treated nail clippings were then separately recovered from each test solution and rinsed with 10 mL of ethyl alcohol to remove antifungal liquid from the surface cavity. The rinsed nail clippings from each test were then separately immersed in another 5 mL portion of anhydrous ethyl alcohol to assess the rate of terbinafine release from the nail structure, by determining the concentration of terbinafine hydrochloride released as a function of time using the HPLC technique described above."}, "[3]": {"tested_on": "T. mentagrophytes, (ATCC 24953)", "test": "Agar diffusion plate assay, zone of inhibition (Example 9)", "format": "cell-based, Trichophyton mentagrophytes", "details": "undiluted composition", "excerpt": "For the agar diffusion assay, the standardized inoculum of conidia is applied to the surface of a Potato Dextrose Agar plate and allowed to dry. Wells are then cut into the agar and the test composition is put into the wells and allowed to diffuse and antifungal activity is evidenced by zones of growth inhibition (i.e., area remaining clear, lacking growth) on the surface of the plates measured in millimeters (mm) diameter.\nThe fungicidal activity of terbinafine hydrochloride against the dermatophytic fungi, T. mentagrophytes, (ATCC 24953), is illustrated in the modified NCCLS broth dilution assay described in Example 8, based on minimum inhibitory concentration (MIC) and minimum fungicidal concentration (MFC) as well as an agar diffusion plate assay measuring the zones of inhibition.\nMIC assay was determined using the broth dilution procedure described in Example 8 performed in microtiter wells with RPMI 1604 as the diluent. Serial dilutions of each test composition were made in RPMI diluent, and then 100 μl of undiluted test composition and of each diluted composition was added to a respective microtiter well. Conidial suspension (100 μl) was then added to each well and the plates were incubated at an incubation temperature of about 35° C. for an incubation period of 4 days dermatophytes, and 48 hours for yeasts. […], undiluted test composition was added to wells cut into the agar and allowed to diffuse. The MIC endpoint was the lowest concentration that inhibited 80% of fungal growth as compared to the growth control. The MFC endpoint was the lowest concentration to produce 1-2 colonies. The zone of inhibition size was measured (diameter of area remaining clear, i.e., lacking growth)."}, "[4]": {"tested_on": "T. mentagrophytes, (ATCC 24953)", "test": "Modified NCCLS M38-A broth microdilution MIC assay", "format": "cell-based, Trichophyton mentagrophytes", "excerpt": "The broth microdilution method was a modification of a NCCLS M38-A standard method for the susceptibility testing of conidium-forming filamentous fungi of the National Committee for Clinical Laboratory Standards (NCCLS). The modified method was developed at the Center for Medical Mycology, University Hospitals of Cleveland, Cleveland, Ohio, based on the method described in Jessup, et al., “Antifungal Susceptibility Testing of Dermatophytes: Establishing a Medium for Inducing Conidial Growth and Evaluation of Susceptibility of Clinical Isolates,” Journal of Clinical Microbiology, 38, 341-344, published by the American Society for Microbiology (2000), the disclosures of which are incorporated herein by reference. Based on a multicenter study of the reproducibility of the modified method for testing dermatophytes, adoption of the modified method as an amendment to the NCCLS M38-A standard has been proposed. […]\nDermatophyte isolates are subcultured onto Potato Dextrose Agar (PDA) and incubated at a temperature of about 30° C. for a period of about 4 to about 5 days or until good conidiation is produced. […] The suspension is allowed to settle for about 5 to about 10 minutes and the conidia is counted using a hemocytometer. […]\nMIC assay was determined using the broth dilution procedure described in Example 8 performed in microtiter wells with RPMI 1604 as the diluent. […]"}, "[5]": {"tested_on": "T. mentagrophytes, (ATCC 24953)", "test": "MFC assay by subculturing the microtiter wells from the MIC test", "format": "cell-based, Trichophyton mentagrophytes", "procedure": "Dermatophyte isolates are subcultured onto Potato Dextrose Agar (PDA) and incubated at a temperature of about 30° C. for a period of about 4 to about 5 days or until good conidiation is produced. T rubrum isolates are subcultured onto cereal (oatmeal) agar instead of PDA in order to induce conidia production. A suspension of conidia in sterile saline is made by gently swabbing the colony surface with a sterile swab. The suspension is allowed to settle for about 5 to about 10 minutes and the conidia is counted using a hemocytometer. Working suspensions of conidia are prepared in 10 ml RPMI 1604 (Difco Laboratories) medium to a final concentration of 1 to 3×10^3 CFU/ml. Yeast controls are subcultured onto PDA and incubated at a temperature of about 35° C. for about 48 hours. Yeast inocula are prepared to a final concentration of 0.5 to 2.5×10^3 CFU/ml. For MIC assay, each drug concentration well and growth control well is inoculated with 100 microliters of cell suspension, and the final volume in each microtiter well is 200 microliters. The dermatophyte plates are incubated at a temperature of about 35° C. for 4 days (yeast controls for 48 hours). […]\nMIC assay was determined using the broth dilution procedure described in Example 8 performed in microtiter wells with RPMI 1604 as the diluent. […] The zone of inhibition size was measured (diameter of area remaining clear, i.e., lacking growth)."}}, "note": "Counter-ions that a name gives are not always drawn.", "data": [{"molecule": "CN(C/C=C/C#CC(C)(C)C)Cc1cccc2ccccc12", "note": "[terbinafine, (E)-N-(6,6-dimethyl-2-hepten-4-ynyl)-N-methyl-1-naphthalene methanamine]", "values": [{"measurement": "period to reach a concentration above the minimum inhibition concentration (MIC) for fungi across nail membrane", "setting": "[1]", "value": "about one"}]}, {"molecule": "CN(C/C=C/C#CC(C)(C)C)Cc1cccc2ccccc12", "note": "[terbinafine hydrochloride]", "values": [{"measurement": "period for amount of terbinafine hydrochloride retained in the nail to reach equilibrium", "setting": "[2]", "value": "about 10 hours"}]}, {"molecule": "CCCCCCCCCCCCOC(=O)C(C)N(C)C.Cl", "note": "(stereo not drawn) [9(E), dodecyl-2-(N,N-dimethylamino) isopropionate hydrochloride]", "values": [{"measurement": "Zone size (mm)", "setting": "[3]", "value": "Zero"}, {"measurement": "efficacy as judged from MIC assays", "setting": "[4]; in words", "value": "at most some weak efficacy"}]}, {"molecule": "CN(C/C=C/C#CC(C)(C)C)Cc1cccc2ccccc12", "note": "[9(F), terbinafine hydrochloride]", "values": [{"measurement": "Zone size (mm)", "setting": "[3]; hydrochloride", "value": 80, "unit": "mm"}]}, {"molecule": "CN(C/C=C/C#CC(C)(C)C)Cc1cccc2ccccc12", "note": "[9(G), terbinafine hydrochloride]", "values": [{"measurement": "Zone size (mm)", "setting": "[3]; hydrochloride", "value": 18, "unit": "mm"}, {"measurement": "MIC", "setting": "[4]; Trichophyton mentagrophytes, ATCC24953, 96 h, 80% growth inhibition, 35° C., 4 days", "value": 0.03, "unit": "µg/mL"}, {"measurement": "MFC", "setting": "[5]; Trichophyton mentagrophytes, ATCC24953, lowest concentration to produce 1-2 colonies", "value": 0.125, "unit": "µg/mL"}, {"measurement": "fungicidal efficacy as judged from MFC assays", "setting": "[5]; in words", "value": "substantially equivalent"}]}]}
